For one experiment, the system named is neuronal cells. The experiment can be described thus: Gigasome-mediated extraction of APP-CTFs upon γ-secretase and proteasome inhibition (fixed plates, confocal). The experiment is classed as cell-based, human. How it is done:
Cells were treated with the γ-secretase inhibitor L-685,458 at 5 μM, either alone or in combination with the proteasome inhibitor MG-132 at 0.1 μM. A vehicular control amount of DMSO was added to the media to comparatively study cargo signals within cells and gigasomes. Treatments were carried out in reduced serum-containing media (3% FBS) for 24 hours. Disease-related cargo presence within cells and in gigasomes was characterized and quantified by confocal microscopy analysis of 4% paraformaldehyde fixed cells, following (immuno)fluorescent labeling of cytosolic, nuclear and cargo-specific protein markers. In some experiments β-III tubulin and Alexa Fluor® 488 phalloidin were used to mark the cytosol and proximal plasma membrane, respectively. To detect APP-CTFs, an antibody against the C-terminus of APP (C-APP) was used (see Table 12). Non-specific labeling was blocked by incubation with 5% normal goat serum in PBS in the presence of 0.05% saponin, for 1 h at room temperature. Primary antibodies were incubated overnight at 4° C., followed by incubation with Alexa Fluor®-conjugated secondary antibodies for 1 hour at room temperature. Nuclei were counterstained with DAPI.
A range of 5-8 images per well were taken from replicate experiments to capture a final total range of 150-200 cells. […] The cellular cargo fluorescence intensity in the red channel was quantified by subtracting the background signal from each image, using the ImageJ built-in “subtract background” function with a default rolling ball radius of 50 pixel. The cargo signal (integrated density) in the red channel was measured and normalized to the number of nuclei counted in each field. […]
For particle analysis, the cytosolic and F-actin/membrane signals were merged into single RGB image, converted to grayscale and then thresholded to create a cellular mask of objects in the field of view, as calculated by the “Li” autothreshold algorithm. […] The quantity or distribution of objects obtained from the particle analysis was divided by the number of cells counted in each field to obtain a normalized quantity or distribution.

Experiment [1] has as its system neuronal cell line derived from human neuroblastoma. The experiment can be described thus: Small molecule compound screen of gigasome production in neuronal monocultures.
The subject of experiment [2] is cardiomyocytic cell line derived from human ventricular heart tissue. The experiment can be described thus: Small molecule compound screen of gigasome production in cardiomyocytic monocultures.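 On all read-outs here: gigasomes shed into the culture medium were imaged by confocal microscopy and counted as round particles lacking nuclear signal, extrapolated to the whole well, fold change is relative to DMSO vehicle.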 The conditions noted are these: for Number of Gigasomes Produced: Table 22, cardiomyocytes, 24 hours.
Protocol: For the screening, a total of 100 randomly organized compounds (TargetMol) were divided in 5 groups. Each group included an untreated condition, a vehicular DMSO control, and a known high-gigasome producing condition to comparatively study gigasome production rates. As a cell death control group, 500 nM Staurosporine was added to induce apoptosis. Cultures were incubated for 24 hours under gigasome inducing conditions at concentrations ranging between 10 nM and 10,000 nM. […] The Zeiss ZEN Blue software was used to distribute imaging fields of view (positions) to create an unbiased imaging sample of a well. 5 images were taken using a Zeiss LSM 900 confocal microscope. […] The BioApps ZEN software package was used to perform cell nucleus segmentation and counting. After 24 hours, gigasomes were harvested from the cell culture media by gently removing from the top of each 96-well ⅔ of the total volume without disturbing the cell layer (containing the settled gigasomes) and by adding to each well the same amount of PBS containing 0.5 mM EDTA. The wells were washed twice gently, and the gigasome-containing media/0.5 mM EDTA PBS wash was transferred into the well of a 384-well glass bottom plate. Cells remaining in the 96-well plates were assessed for viability using CellTiter-Glo (Promega).
For gigasome analysis in 384-well plates, the Zeiss ZEN Blue software was used to distribute positions to create an unbiased imaging sample of a well. 6 images per well were taken using a Zeiss LSM 900 confocal microscope. […] A watershed binary segmentation step was performed to separate grouped objects. For each particle in the mask, characteristic parameters of the particle were calculated and saved. […] Particles of interest were identified by thresholding by area and circularity. […] Circularity, defined by the formula 4pi(area/perimeter^2, was set to be between 0.8, where a value of 1.0 is a perfect circle, and a value of 0 is a line. Gigasomes were identified from the particles of interest by thresholding by mean nuclear signal. The nuclear signal threshold was set using a value equal to one quarter of a threshold value calculated by the Li auto-threshold algorithm applied to the distribution of all particles of interest. Particles of interest with nuclear signal below this value were considered “negative” for nuclear material and were identified as gigasomes. A sampling factor was calculated to extrapolate the total quantity of a type of object (particles, particles of interest, gigasomes) in the well. The sampling factor was the percentage of the well's area that was imaged. […] In some experiments, the number of cells in the cell cultures were estimated with a cell counter. […] The normalized quantity or distribution of objects was described as a quantity or distribution of objects per 1000 cells.
Where [3] appears, read: Homo sapiens, Cardiomyocyte, 24 h, read-out: Fold Change of Gigasomes Produced vs. DMSO.

Molecules are shown by their SMILES. Peptide text beside a SMILES is read from it. * marks the point of attachment. Cbz = O=C(OCc1ccccc1)*

The values that follow come from US20240400986A1, “MEMBRANE BOUND COMPOSITIONS AND METHODS RELATING TO SAME” (FLAGSHIP PIONEERING INNOVATIONS VII, LLC, priority 2021, published 2024).

As for `CC(C)C[C@@H](C=O)NC(=O)[C@H](CC(C)C)NC(=O)[C@H](CC(C)C)NC(=O)OCc1ccccc1` [MG-132, reference compound] (Cbz-Leu-Leu-Leu-aldehyde), in the experiment with neuronal cells (compared to γ-secretase inhibitor and DMSO conditions (FIG. 6D)), the “C-APP+ve particle intensity distribution (gigasome diameter and brightness)” value was “larger in diameter and brighter”. Moreover, the “intracellular APP-CTF levels (C-APP immunoreactivity)” value in the experiment with neuronal cells (γ-secretase inhibitor 5 μM, MG-132 0.1 μM, alone or combined, 24 h, compared to DMSO) is “does not increase”. Also, the fold induction at 0.1 µM in experiment [1] (Homo sapiens, 24 h, read-out: Fold Change of Gigasomes Produced vs. DMSO) is 1.5 to 1.75; in experiment [2] (setting [3]), more than 4. Moreover, the “Number of Gigasomes Produced” value in experiment [1] (neuronal cells, dose 100 nM, 24 hours) is 55-65; in experiment [2] (dose 10 nM), 150-175; in experiment [2] (dose 100 nM), more than 400. For the same compound, in experiment [2] (setting [3]), the fold induction at 0.01 µM was in the range of 1.5 to 1.75.
